Data: patent US20110200554A1, “THERAPEUTIC AGENT FOR HEPATITIS C” (priority 2008, published 2011)

How the values were obtained:
[1] = test system: genome-length HCV RNA replication in OR6 cells; assay: Genome-length HCV replication assay in OR6 cells (Renilla luciferase reporter); type: cell-based, Hepatitis C virus (HCV); details: luciferase activity
Description: Briefly, the cells described in Patent Literature 1 used for the screening were as follows: That is, the cells were those obtained by introducing, into Oc cells (FERM P-20517) originated from a human hepatocarcinoma cell line HuH-7, a plasmid containing full length of HCV genome, luciferase gene as a reporter gene and neomycin-resistant gene (neomycin phosphotransferase gene) as a selection marker gene. More specifically, the cells (OR6 cells) were the Oc cells (FERM P-20517) originated from a human hepatocarcinoma cell line HuH-7, into which a plasmid having an RNA containing, from the 5′-end, internal ribosome entry site (IRES) sequence of HCV, luciferase gene, neomycin phosphotransferase gene, IRES sequence originated from encephalomyocarditis virus (EMCV), HCV open reading frame sequence and HCV 3′ untranslated sequence. After culturing the OR6 cells in a culture medium containing a test compound whose anti-viral activity against HCV (that is, therapeutic effect against hepatitis C) is to be examined, the luciferase activity of the cells is measured. […] Therefore, the lower the luciferase activity measured, the higher the anti-HCV activity. In Patent Literature 1, it was experimentally confirmed that correlation between the luciferase activity measured and the amount of HCV RNA is very high, so that it has been confirmed that this system has a high reliability. […]

[2] = test system: Renilla luciferase driven by EMCV IRES in OR6c cells; assay: Control transfection: EMCV IRES-driven Renilla luciferase plasmid pEMCV-RL in cured OR6c cells; type: cell-based, human; details: cured OR6c cells transfected with pEMCV-RL, HU added 24 h after transfection, 72 h culture
Experimental: In accordance with Patent Literature 1, a plasmid encoding Renilla luciferase driven by the internal ribosome entry site (IRES) of encephalomyocarditis virus (EMCV) was transfected into OR6c cells which were OR6 cells cured by IFN, with FuGENE6 reagent (produced by Roche Diagnostics), and 24 hours after transfection, the cells were treated with various concentrations of HU and cultured for 72 hours.

[3] = test system: OR6 cells; assay: Cell viability, viable cell count after trypan blue staining; type: cell-based, human; details: 72 h, HU at each concentration up to 100 μmol/L
Experimental: In order to examine the cytotoxic effects of HU on OR6 cells, the cells were seeded onto dishes of diameter 95 mm at a density of 400,000 cells per dish, and cultured for 72 hours after adding HU to a concentration of 0, 50, 100, and 150 μmol/L, respectively. The number of viable cells was then counted by a hematocytometer after staining with trypan blue dye.

[4] = test system: HCV RNA (virus level); assay: Clinical test in patients with intractable hepatitis C, serum HCV RNA by real-time PCR (TaqMan); type: in vivo, human; details: oral 1500 mg/day for 4 weeks
Experimental: Serum HCV RNA level (log IU/ml) was measured every week from before the administration to the end of the therapy by the real-time detection PCR method using TaqMan (trade name) probe.

[5] = serum HCV RNA (log IU/ml), 12 patients

Row | Substance | IC50 ([1]; 72-h treatment, HU up to 150 μmol/L, read-out: 50% replication inhibition concentration) [µM] | inhibition of Renilla fluorescence (control plasmid) [2] | number of viable cells compared to untreated cells [3] | patients with decrease in the virus level (HCV RNA) ([4]; 9 out of 12 patients, intractable hepatitis C, serogroup 1, high virus level) [%] | decrease in the virus level, average [4, 5] [Log] | decrease in the virus level, maximum [4, 5] [Log] | 50% inhibition concentration ([1]; 72 h treatment) [IU/mL]
1 | hydroxyurea [HU] | 60 | did not inhibit | no significant difference | 75 | 0.22 | 0.37 | –
2 | interferon α | – | – | – | – | – | – | 1.2
